Experimental data: PMC8041284, “Tunable Methacrylamides for Covalent Ligand Directed Release Chemistry” (Journal of the American Chemical Society, 2021)
Where two headings read alike, the source gives them in different places. Where a SMILES comes first, the peptide text is derived from it. [ ]: non-standard residue; d: D form. Dip = N[C@H](C(=O)O)C(c1ccccc1)c1ccccc1

Molecular target: BTK (Homo sapiens, UniProt Q06187)
Assay: biochemical
[1] = read-out: BTK inhibition (%), 0.75 uM BTK, […] probe 3l, 15 min preincubation

Sequence of BTK (Q06187 402-655 limits assumed): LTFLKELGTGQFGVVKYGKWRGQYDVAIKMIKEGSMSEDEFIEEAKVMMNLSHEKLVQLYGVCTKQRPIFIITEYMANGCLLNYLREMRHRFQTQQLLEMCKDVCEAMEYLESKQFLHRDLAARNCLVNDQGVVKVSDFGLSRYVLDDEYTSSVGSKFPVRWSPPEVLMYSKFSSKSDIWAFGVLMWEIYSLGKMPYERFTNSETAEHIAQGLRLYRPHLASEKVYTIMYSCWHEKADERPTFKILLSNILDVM

| Structure (SMILES) | inhibition at 10 µM [1] | inhibition at 10 µM (read-out: BTK inhibition (%)) |
| --- | --- | --- |
| CCOc1ccccc1O[C@H](c1ccccc1)[C@H]1CNCCO1 [PCM-0095634] | -7% | – |
| CCN[C@H]1C[C@H](C)S(=O)(=O)c2sc(S(N)(=O)=O)cc21 [PCM-0086331] | 10.2% | – |
| Cc1nnc(NS(=O)(=O)c2ccc(N)cc2)s1 [PCM-0086420] | -10.9% | – |
| O=C1c2cccc(O)c2C(=O)c2c(O)cc(CO)cc21 [PCM-0095288] | 16.3% | – |
| CN1CCN2c3ncccc3Cc3ccccc3C2C1 (centres unmarked) [PCM-0086153] | 12.5% | – |
| CCCCNc1cc(C(=O)O)cc(S(N)(=O)=O)c1Oc1ccccc1 [PCM-0064421] | -6.2% | – |
| OCc1ccccc1O[C@@H]1O[C@H](CO)[C@@H](O)[C@H](O)[C@H]1O [PCM-0086703] | -7.6% | – |
| CCn1cc(C(=O)O)c(=O)c2ccc(C)nc21 [PCM-0012961] | 5.4% | – |
| CCn1cc(C(=O)O)c(=O)c2cc(F)c(N3CCNCC3)cc21 [PCM-0085898] | -12.8% | – |
| C[C@@H]1C(=O)O[C@H]2C[C@@]34[C@H]5C[C@@H](C(C)(C)C)[C@]36[C@@H](OC(=O)[C@@H]6O)O[C@@]4(C(=O)O5)[C@]21O [PCM-0089814] | -7.8% | – |
| CC(C)(C)NC(=O)[C@H]1CC[C@H]2[C@@H]3CC[C@H]4NC(=O)C=C[C@]4(C)[C@H]3CC[C@]12C [PCM-0214718] | 13.2% | – |
| CCN1CCC[C@H]1CNC(=O)c1cc(S(N)(=O)=O)ccc1OC [PCM-0065527] | -6.2% | – |
| CC(C)(C)C(=O)OCOP(=O)(COCCn1cnc2c(N)ncnc21)OCOC(=O)C(C)(C)C [PCM-0095170] | 3.9% | – |
| O=c1[nH]c2ccc(Cl)cc2c(N[C@@H]2CN3CCC2CC3)c1-c1nc2ccccc2[nH]1 [PCM-0095378] | 0% | – |
| O=C(CCc1ccc(O)cc1)c1c(O)cc(O)cc1O[C@@H]1O[C@H](CO)[C@@H](O)[C@H](O)[C@H]1O [PCM-0089058] | 4.7% | – |
| CCc1c2c(nc3ccc(OC(=O)N4CCC(N5CCCCC5)CC4)cc13)-c1cc3c(c(=O)n1C2)COC(=O)[C@]3(O)CC [PCM-0086493] | 6.9% | – |
| Cc1cc(C)nc(NS(=O)(=O)c2ccc(NC(=S)NC(=O)COc3ccc(Br)cc3Cl)cc2)n1 [PCM-0095801] | 59.5% | – |
| CCCC(=O)O [PCM-0095272] | 0% | – |
| CNC(=O)c1nn(C)c2c1C(C)(C)Cc1cnc(Nc3ccc(N4CCN(C)CC4)cc3)nc1-2 [PCM-0095492] | 44.1% | – |

| Structure (SMILES) | inhibition at 10 µM [1] | inhibition at 10 µM (read-out: BTK inhibition (%)) |
| --- | --- | --- |
| Nc1ncnc2c1c(-c1cccc(OCc3ccccc3)c1)cn2C1CC(CN2CCCC2)C1 (centres unmarked) [PCM-0095055] | 13.2% | – |
| CNNCc1ccc(C(=O)NC(C)C)cc1 [PCM-0086325] | -17.9% | – |
| C[C@@H]1CC[C@@]2(OC1)O[C@H]1C[C@H]3[C@@H]4CC=C5C[C@@H](O)C[C@@H](O)[C@]5(C)[C@H]4CC[C@]3(C)[C@H]1[C@@H]2C [PCM-0216451] | -20.8% | – |
| C[C@@H](O[C@H]1OCCN(Cc2n[nH]c(=O)[nH]2)[C@H]1c1ccc(F)cc1)c1cc(C(F)(F)F)cc(C(F)(F)F)c1 [PCM-0214564] | -8.3% | – |
| c1ccc2c(CCNc3ccc(Nc4ccncc4)cc3)c[nH]c2c1 [PCM-0095026] | 26.9% | – |
| COc1cc(OC)c(OC)cc1C=O [PCM-0091340] | – | -12.4% |
| C[C@]12CC[C@@H]3c4ccc(O)cc4CC[C@H]3[C@@H]1CCC2=O [PCM-0214644] | -4.8% | – |
| O=C(/C=C/c1ccc(O)c2c1[C@H](C(=O)O[C@H](Cc1ccc(O)c(O)c1)C(=O)O)[C@@H](c1ccc(O)c(O)c1)O2)O[C@H](Cc1ccc(O)c(O)c1)C(=O)O [PCM-0214854] | -34.2% | – |
| CC(C)(C)c1cc(C=C(C#N)C#N)cc(C(C)(C)C)c1O [PCM-0064935] | 15.2% | – |
| CC[C@H](NC(=O)[C@H](C)NC)C(=O)N1C[C@@H](O)C[C@H]1Cc1c(-c2[nH]c3cc(F)ccc3c2C[C@@H]2C[C@H](O)CN2C(=O)[C@H](CC)NC(=O)[C@H](C)NC)[nH]c2cc(F)ccc12 [PCM-0214572] | 5.4% | – |
| CC(C)(O)[C@H]1CC[C@@](C)([C@H]2[C@@H](O)C[C@@]3(C)[C@@H]4C[C@H](O)[C@H]5C(C)(C)[C@@H](O)CC[C@@]56C[C@@]46CC[C@]23C)O1 [PCM-0215043] | -14.8% | – |
| Nc1ccc(O)c(C(=O)O)c1 [PCM-0086222] | -9% | – |
| COc1cc2ncnc(Oc3cccc(NC(=O)Nc4cc(C(C)(C)C(F)(F)F)on4)c3)c2cc1OC [PCM-0095605] | 4.1% | – |
| Cn1cc(CNCC2CCN(c3ncc(C(=O)NO)cn3)CC2)c2ccccc21 [PCM-0095073] | -11.7% | – |
| CCCNC(C)C(=O)Nc1ccccc1C (centres unmarked) [PCM-0065518] | -16.3% | – |
| CN1C(C(=O)Nc2ccccn2)=C(O)c2sccc2S1(=O)=O [PCM-0086073] | -6.9% | – |
| C[C@H]1[C@H](OC(=O)CCC(=O)O)O[C@@H]2O[C@@]3(C)CC[C@H]4[C@H](C)CC[C@@H]1[C@@]24OO3 [PCM-0214643] | 6.2% | – |
| Clc1ccc(Nc2nnc(Cc3ccncc3)c3ccccc23)cc1 [PCM-0086134] | -14.5% | – |

Now from value to molecule, other results behind:

| inhibition at 10 µM [1] | Structure (SMILES) | inhibition at 10 µM (read-out: BTK inhibition (%)) |
| --- | --- | --- |
| -10% | COc1ccc(-c2coc3cc(O[C@@H]4O[C@H](CO)[C@@H](O)[C@H](O)[C@H]4O)ccc3c2=O)cc1O [PCM-0216381] | – |
| -0.9% | CSCC[C@H](N)C(=O)O [PCM-0216223] | – |
| 8.5% | COc1ccc(C(=O)CC2(O)C(=O)Nc3c(Cl)ccc(Cl)c32)cc1 (centres unmarked) [PCM-0215405] | – |
| 9.3% | CO/N=C(\C(=O)N[C@@H]1C(=O)N2C(C(=O)[O-])=C(C[n+]3cccc4c3CCCC4)CS[C@H]12)c1csc(N)n1 [PCM-0216083] | – |
| -10.1% | COc1cc(C=O)ccc1OC(C)=O [PCM-0215077] | – |
| -1.4% | O=C[C@H](O)[C@H]1OC(=O)[C@@H](O)[C@H]1O [PCM-0215140] | – |
| 17.8% | CCCCCCCCCC[C@H](C(=O)O)[C@]1(C(=O)O)CCC(=O)O1 [PCM-0215979] | – |
| 3.9% | CC(C)c1cccc(O)c(=O)c1 [PCM-0215059] | – |
| 11.6% | CCNC(=O)c1noc(-c2cc(Cl)c(O)cc2O)c1-c1ccc(OC)cc1 [PCM-0215317] | – |
| -3.1% | CC1=C[C@H]2[C@@H](CC1)[C@H](C)CC[C@H]2[C@@H](C)C(=O)O [PCM-0216135] | – |
| -8.6% | C=C1[C@H](O)C[C@H]2[C@@H](/C=C(\C)C(=O)[C@@]3(O)C[C@H](C)[C@H](O)[C@@H]3[C@H]1O)C2(C)C [PCM-0216654] | – |
| 7.7% | C/C=C(/C)C(=O)O[C@H]1[C@@H](OC(=O)CC(C)C)c2c(ccc3ccc(=O)oc23)OC1(C)C [PCM-0216428] | – |
| 101% | c1nc2nc(Nc3ccc(N4CCOCC4)cc3)nc(NC3CCCCC3)c2[nH]1 [PCM-0215406] | – |
| -9.3% | COc1cc(-c2coc3cc4c(c(OC)c3c2=O)OCO4)cc(OC)c1OC [PCM-0216353] | – |
| 7.7% | COc1cc(O)c2c(=O)c(O[C@@H]3O[C@H](CO)[C@@H](O)[C@H](O)[C@H]3O)c(-c3ccc(O[C@@H]4O[C@H](CO)[C@@H](O)[C@H](O)[C@H]4O)cc3)oc2c1 [PCM-0216473] | – |
| -17% | Cn1c(O)c(C2=c3ccccc3=NC2=O)c2ccccc21 [PCM-0216129] | – |
| 17% | O=C(c1ccc(Cl)cc1Cl)n1nnc2ccccc21 [PCM-0215673] | – |

| inhibition at 10 µM [1] | Structure (SMILES) | inhibition at 10 µM (read-out: BTK inhibition (%)) |
| --- | --- | --- |
| -27.6% | COc1ccc(CCNCc2ccc(OCc3ccc(Cl)nc3)c(OC)c2)cc1OC [PCM-0215426] | – |
| -19.6% | NCCCC[C@H](NC(=O)[C@@H]1CCCN1C(=O)[C@@H]1CSSC[C@H](N)C(=O)N[C@@H](Cc2ccc(O)cc2)C(=O)N[C@@H](Cc2ccccc2)C(=O)N[C@@H](CCC(N)=O)C(=O)N[C@@H](CC(N)=O)C(=O)N1)C(=O)NCC(N)=O [PCM-0216267] | – |
| 11.9% | O=P(O)(O)OC(CO)CO [PCM-0215880] | – |
| -7.7% | CN(C)C(=O)c1cc2cnc(Nc3ccc(N4CCNCC4)cn3)nc2n1C1CCCC1 [PCM-0215283] | – |
| 77.8% | N/C(=N\N=C\c1ccc(Cl)cc1)N/N=C/c1ccc(Cl)cc1 [PCM-0215125] | – |
| -23.2% | CC(C)=CCC[C@@](C)(O)[C@H]1CC[C@]2(C)[C@@H]1[C@H](O)C[C@@H]1[C@@]3(C)CC[C@H](O[C@@H]4O[C@H](CO)[C@@H](O)[C@H](O)[C@H]4O)C(C)(C)[C@@H]3CC[C@]12C [PCM-0216344] | – |
| -11.1% | NCCCC[C@H](NC(=O)[C@@H](NC(=O)[C@H](Cc1c[nH]c2ccccc12)NC(=O)[C@H](CCCCN)NC(=O)[C@H](CCCCN)NC(=O)[C@H](Cc1c[nH]c2ccccc12)NC(=O)[C@H](Cc1c[nH]c2ccccc12)NC(=O)[C@H](CCCCN)NC(=O)[C@@H](N)CCCCN)C(c1ccccc1)c1ccccc1)C(N)=O [PCM-0215623] (H-KKWWKKW[Dip]K-NH2) | – |
| 13.1% | Cc1cc2c3c([n+](C)c4ccc(F)cc4c3c1)-c1cc(F)ccc1N2C [PCM-0215703] | – |
| 6.9% | Cn1cc(C(=O)Nc2ccc3c(c2)OCCO3)c2ccccc2c1=O [PCM-0215752] | – |
| -18.5% | O=S(=O)(c1ccc2c(c1)C(=NO)c1cc(S(=O)(=O)N3CCCCC3)ccc1-2)N1CCCCC1 [PCM-0215952] | – |
| 10.8% | C[C@@H]1O[C@@H](OC[C@H]2O[C@@H](Oc3cc(O)c4c(c3)O[C@H](c3ccc(O)cc3)CC4=O)[C@H](O)[C@@H](O)[C@@H]2O)[C@H](O)[C@H](O)[C@H]1O [PCM-0216493] | – |
| 0% | CC#Cc1cncc(-c2ccc3c(c2)[C@@]2(N=C(C)C(N)=N2)C2(CCC(OC)CC2)C3)c1 (some centres unmarked) [PCM-0215755] | – |
| -26.5% | CCCNC[C@]1(O)[C@H](C)O[C@@H](O[C@H]2[C@H](C)[C@@H](O[C@@H]3O[C@H](C)C[C@H](N(C)C)[C@H]3O)[C@](C)(O)C[C@@H](C)CN[C@H](C)[C@@H](O)[C@](C)(O)[C@@H](CC)OC(=O)[C@@H]2C)C[C@@]1(C)OC [PCM-0214927] | – |
| -12.4% | C[C@@H]([C@H](C)O)[C@H](N)C(=O)O [PCM-0216300] | – |
| -2.3% | CCCCCCCCCCCCN1CCCCCC1=O [PCM-0216037] | – |
| 27.8% | COc1cc2c[n+](C)c3c4cc5c(cc4ccc3c2cc1OC)OCO5 [PCM-0216452] | – |
| -3.9% | C=C1C[C@@]23CC[C@H]4[C@@](C)(CCC[C@@]4(C)C(=O)O)[C@@H]2CC[C@@H]1C3 [PCM-0216330] | – |
